According to PubChem BioAssay (NCI):
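Cells were grown in 96-well plates and exposed to each compound for 48 hours at five concentrations; endpoints were interpolated linearly between bracketing concentrations, or set to the highest concentration if not reached. GI50 = concentration required for 50% inhibition of growth. TGI: concentration producing complete growth inhibition.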

How the values were obtained:
Experiment in all cases: DTP human tumour cell line panel, 48 h
SK-MEL-5 melanoma = tested on: SK-MEL-5 melanoma
NCI/ADR-RES ovarian = tested on: NCI/ADR-RES ovarian
CAKI-1 renal = tested on: CAKI-1 renal
NCI-H522 lung = tested on: NCI-H522 lung
EKVX NSCLC = tested on: EKVX NSCLC
NCI-H460 lung = tested on: NCI-H460 lung
TK-10 renal = tested on: TK-10 renal
COLO 205 colon = tested on: COLO 205 colon
HOP-62 NSCLC = tested on: HOP-62 NSCLC
UACC-257 melanoma = tested on: UACC-257 melanoma
MCF7 breast = tested on: MCF7 breast
IGROV1 ovarian = tested on: IGROV1 ovarian
ACHN renal = tested on: ACHN renal
HOP-92 NSCLC = tested on: HOP-92 NSCLC
A498 renal = tested on: A498 renal
SNB-19 CNS = tested on: SNB-19 CNS
RXF 393 renal = tested on: RXF 393 renal
U251 CNS = tested on: U251 CNS
MDA-MB-435 = tested on: MDA-MB-435
UO-31 renal = tested on: UO-31 renal
NCI-H23 lung = tested on: NCI-H23 lung
HCT-116 colon = tested on: HCT-116 colon
BT-549 breast = tested on: BT-549 breast
UACC-62 melanoma = tested on: UACC-62 melanoma
SR leukemia = tested on: SR leukemia
HCC-2998 colon = tested on: HCC-2998 colon
OVCAR-3 ovarian = tested on: OVCAR-3 ovarian
RPMI-8226 leukemia = tested on: RPMI-8226 leukemia
MOLT-4 leukemia = tested on: MOLT-4 leukemia
SK-MEL-2 melanoma = tested on: SK-MEL-2 melanoma
SN12C renal = tested on: SN12C renal
LOX IMVI melanoma = tested on: LOX IMVI melanoma
SF-268 CNS = tested on: SF-268 CNS
OVCAR-8 ovarian = tested on: OVCAR-8 ovarian
HS 578T breast = tested on: HS 578T breast
KM12 colon = tested on: KM12 colon
K-562 leukemia = tested on: K-562 leukemia
T-47D breast = tested on: T-47D breast
786-0 renal = tested on: 786-0 renal
HCT-15 colon = tested on: HCT-15 colon
MALME-3M melanoma = tested on: MALME-3M melanoma
SK-OV-3 ovarian = tested on: SK-OV-3 ovarian
HT29 colon = tested on: HT29 colon
SW-620 colon = tested on: SW-620 colon
HL-60(TB) leukemia = tested on: HL-60(TB) leukemia
OVCAR-4 ovarian = tested on: OVCAR-4 ovarian
CCRF-CEM leukemia = tested on: CCRF-CEM leukemia
SF-295 CNS = tested on: SF-295 CNS
SK-MEL-28 melanoma = tested on: SK-MEL-28 melanoma
OVCAR-5 ovarian = tested on: OVCAR-5 ovarian
MDA-MB-231 breast = tested on: MDA-MB-231 breast
A549 NSCLC = tested on: A549 NSCLC
PC-3 prostate = tested on: PC-3 prostate
M14 melanoma = tested on: M14 melanoma
SNB-75 CNS = tested on: SNB-75 CNS
DU-145 prostate = tested on: DU-145 prostate
NCI-H226 lung = tested on: NCI-H226 lung
SF-539 CNS = tested on: SF-539 CNS

C=C1C(=O)O[C@H]2[C@H]1CC/C(COC(=O)C(=O)c1c[nH]c3ccccc13)=C\CC[C@@]1(C)O[C@@H]21 was tested. Which GI50 (SK-MEL-5 melanoma) did it give?
The GI50 was 2060 nM.

What about the TGI (SK-MEL-5 melanoma) of the same compound?
Its TGI is 4.13 µM.

And the GI50 (NCI/ADR-RES ovarian)?
Its GI50 is 3.92 µM.

And the TGI (NCI/ADR-RES ovarian)?
Its TGI is 19.4 µM.

And the GI50 (CAKI-1 renal)?
Its GI50 is 2970 nM.

What about the TGI (CAKI-1 renal) of the same compound?
Its TGI is 13.5 µM.

What about the GI50 (NCI-H522 lung) of the same compound?
Its GI50 is 878 nM.

What about the TGI (NCI-H522 lung) of the same compound?
Its TGI is 2400 nM.

And the GI50 (EKVX NSCLC)?
Its GI50 is 8.31 µM.

And the TGI (EKVX NSCLC)?
The TGI was 20.7 µM.

What about the GI50 (NCI-H460 lung) of the same compound?
The GI50 was 4.03 µM.

And the TGI (NCI-H460 lung)?
The TGI was 20.7 µM.

What about the GI50 (TK-10 renal) of the same compound?
Its GI50 is 1380 nM.

What about the TGI (TK-10 renal) of the same compound?
Its TGI is 2810 nM.

What about the GI50 (COLO 205 colon) of the same compound?
Its GI50 is 1800 nM.

What about the TGI (COLO 205 colon) of the same compound?
Its TGI is 3.91 µM.

What about the GI50 (HOP-62 NSCLC) of the same compound?
The GI50 was 1720 nM.

What about the TGI (HOP-62 NSCLC) of the same compound?
The TGI was 4 µM.

And the GI50 (UACC-257 melanoma)?
The GI50 was 1640 nM.

What about the TGI (UACC-257 melanoma) of the same compound?
The TGI was 3.53 µM.

And the GI50 (MCF7 breast)?
The GI50 was 2160 nM.

And the TGI (MCF7 breast)?
The TGI was 8.83 µM.

And the GI50 (IGROV1 ovarian)?
The GI50 was 2110 nM.

What about the TGI (IGROV1 ovarian) of the same compound?
Its TGI is 4.39 µM.

What about the GI50 (ACHN renal) of the same compound?
The GI50 was 2130 nM.

What about the TGI (ACHN renal) of the same compound?
Its TGI is 6.1 µM.

And the GI50 (HOP-92 NSCLC)?
The GI50 was 2040 nM.

What about the TGI (HOP-92 NSCLC) of the same compound?
Its TGI is 4.49 µM.

And the GI50 (A498 renal)?
The GI50 was 8.56 µM.

What about the TGI (A498 renal) of the same compound?
The TGI was 20.7 µM.

What about the GI50 (SNB-19 CNS) of the same compound?
Its GI50 is 10.6 µM.

What about the TGI (SNB-19 CNS) of the same compound?
Its TGI is 26 µM.

And the GI50 (RXF 393 renal)?
Its GI50 is 2010 nM.

And the TGI (RXF 393 renal)?
The TGI was 3.61 µM.

And the GI50 (U251 CNS)?
The GI50 was 1860 nM.

And the TGI (U251 CNS)?
The TGI was 3.64 µM.

And the GI50 (MDA-MB-435)?
The GI50 was 2630 nM.

What about the TGI (MDA-MB-435) of the same compound?
Its TGI is 9.82 µM.

And the GI50 (UO-31 renal)?
Its GI50 is 1840 nM.

And the TGI (UO-31 renal)?
Its TGI is 3.58 µM.

What about the GI50 (NCI-H23 lung) of the same compound?
Its GI50 is 3.92 µM.

What about the TGI (NCI-H23 lung) of the same compound?
The TGI was 16 µM.

What about the GI50 (HCT-116 colon) of the same compound?
The GI50 was 1680 nM.

What about the TGI (HCT-116 colon) of the same compound?
The TGI was 3.24 µM.

And the GI50 (BT-549 breast)?
The GI50 was 2080 nM.

And the TGI (BT-549 breast)?
The TGI was 5.22 µM.

And the GI50 (UACC-62 melanoma)?
The GI50 was 1890 nM.

And the TGI (UACC-62 melanoma)?
Its TGI is 4.29 µM.

And the GI50 (SR leukemia)?
Its GI50 is 1550 nM.

What about the TGI (SR leukemia) of the same compound?
Its TGI is 14.3 µM.

What about the GI50 (HCC-2998 colon) of the same compound?
Its GI50 is 1950 nM.

And the TGI (HCC-2998 colon)?
The TGI was 4.02 µM.

What about the GI50 (OVCAR-3 ovarian) of the same compound?
The GI50 was 1860 nM.

What about the TGI (OVCAR-3 ovarian) of the same compound?
The TGI was 4.63 µM.

And the GI50 (RPMI-8226 leukemia)?
The GI50 was 2070 nM.

And the TGI (RPMI-8226 leukemia)?
The TGI was 10.9 µM.

What about the GI50 (MOLT-4 leukemia) of the same compound?
Its GI50 is 2200 nM.

And the TGI (MOLT-4 leukemia)?
Its TGI is 7.3 µM.

And the GI50 (SK-MEL-2 melanoma)?
The GI50 was 1630 nM.

What about the TGI (SK-MEL-2 melanoma) of the same compound?
Its TGI is 3.78 µM.

What about the GI50 (SN12C renal) of the same compound?
Its GI50 is 2720 nM.

What about the TGI (SN12C renal) of the same compound?
Its TGI is 7.11 µM.

And the GI50 (LOX IMVI melanoma)?
Its GI50 is 1480 nM.

And the TGI (LOX IMVI melanoma)?
Its TGI is 3.04 µM.

What about the GI50 (SF-268 CNS) of the same compound?
Its GI50 is 2390 nM.

And the TGI (SF-268 CNS)?
Its TGI is 7.68 µM.

What about the GI50 (OVCAR-8 ovarian) of the same compound?
The GI50 was 3.14 µM.

What about the TGI (OVCAR-8 ovarian) of the same compound?
Its TGI is 12.7 µM.

And the GI50 (HS 578T breast)?
The GI50 was 4.89 µM.

And the TGI (HS 578T breast)?
The TGI was greater than 100 µM.

What about the GI50 (KM12 colon) of the same compound?
Its GI50 is 3.28 µM.

And the TGI (KM12 colon)?
The TGI was 13.4 µM.

And the GI50 (K-562 leukemia)?
The GI50 was 2280 nM.

And the TGI (K-562 leukemia)?
Its TGI is 9.5 µM.

And the GI50 (T-47D breast)?
The GI50 was 1610 nM.

And the TGI (T-47D breast)?
Its TGI is 4.47 µM.

What about the GI50 (786-0 renal) of the same compound?
Its GI50 is 1840 nM.

What about the TGI (786-0 renal) of the same compound?
Its TGI is 3.72 µM.

And the GI50 (HCT-15 colon)?
The GI50 was 1750 nM.

What about the TGI (HCT-15 colon) of the same compound?
The TGI was 4.02 µM.

What about the GI50 (MALME-3M melanoma) of the same compound?
The GI50 was 2090 nM.

What about the TGI (MALME-3M melanoma) of the same compound?
Its TGI is 4.33 µM.

What about the GI50 (SK-OV-3 ovarian) of the same compound?
Its GI50 is 11.9 µM.

What about the TGI (SK-OV-3 ovarian) of the same compound?
Its TGI is 24.6 µM.

And the GI50 (HT29 colon)?
The GI50 was 1210 nM.

What about the TGI (HT29 colon) of the same compound?
The TGI was 2680 nM.

What about the GI50 (SW-620 colon) of the same compound?
Its GI50 is 3.09 µM.

And the TGI (SW-620 colon)?
The TGI was 16.6 µM.

And the GI50 (HL-60(TB) leukemia)?
Its GI50 is 1860 nM.

And the TGI (HL-60(TB) leukemia)?
The TGI was 4.67 µM.

And the GI50 (OVCAR-4 ovarian)?
The GI50 was 5.18 µM.

And the TGI (OVCAR-4 ovarian)?
Its TGI is 25.9 µM.

What about the GI50 (CCRF-CEM leukemia) of the same compound?
The GI50 was 1270 nM.

And the TGI (CCRF-CEM leukemia)?
The TGI was 13.1 µM.

What about the GI50 (SF-295 CNS) of the same compound?
Its GI50 is 11.8 µM.

And the TGI (SF-295 CNS)?
The TGI was 24.9 µM.

And the GI50 (SK-MEL-28 melanoma)?
The GI50 was 2020 nM.

And the TGI (SK-MEL-28 melanoma)?
The TGI was 4.23 µM.

And the GI50 (OVCAR-5 ovarian)?
Its GI50 is 2350 nM.

And the TGI (OVCAR-5 ovarian)?
Its TGI is 6.42 µM.

And the GI50 (MDA-MB-231 breast)?
Its GI50 is 2460 nM.

And the TGI (MDA-MB-231 breast)?
Its TGI is 5.5 µM.

And the GI50 (A549 NSCLC)?
Its GI50 is 2270 nM.

And the TGI (A549 NSCLC)?
The TGI was 6.08 µM.

And the GI50 (PC-3 prostate)?
The GI50 was 2130 nM.

What about the TGI (PC-3 prostate) of the same compound?
Its TGI is 4.37 µM.

And the GI50 (M14 melanoma)?
The GI50 was 2000 nM.

And the TGI (M14 melanoma)?
The TGI was 5.19 µM.

And the GI50 (SNB-75 CNS)?
The GI50 was 2290 nM.

And the TGI (SNB-75 CNS)?
The TGI was 11.1 µM.

What about the GI50 (DU-145 prostate) of the same compound?
Its GI50 is 3.12 µM.

And the TGI (DU-145 prostate)?
Its TGI is 11.8 µM.

And the GI50 (NCI-H226 lung)?
The GI50 was 1980 nM.

What about the TGI (NCI-H226 lung) of the same compound?
The TGI was 3.89 µM.

What about the GI50 (SF-539 CNS) of the same compound?
The GI50 was 1750 nM.

And the TGI (SF-539 CNS)?
Its TGI is 3.76 µM.
